IC50 and Ki data for six compounds are collected here from ChEMBL document CHEMBL1909046, “DrugMatrix in vitro pharmacology data”.

Usually IC50 stands for the midpoint of a concentration-inhibition curve.

The target in series [1] is Epidermal growth factor receptor (Homo sapiens, UniProt P00533). Put plainly: DRUGMATRIX: Protein Tyrosine Kinase, EGF Receptor enzyme inhibition (substrate: Poly(Glu:Tyr)). Type of series: cell-based, Insect cells. The note with it: insect cells, Not Active = under 50% inhibition at 10 µM.
A further series addresses Cytochrome P450 2E1 (Homo sapiens, UniProt P05181). The note with it: bti-tn-5b1-4.
In another series the target is Acetylcholinesterase (Homo sapiens, UniProt P22303). Description: DRUGMATRIX: Acetylcholinesterase enzyme inhibition (substrate: acetylthiocholine). The format is cell-based, HEK293. The note with it: hek293; Not Active = under 50% inhibition at 10 µM.
Acetylcholinesterase, sequence (P22303 whole entry): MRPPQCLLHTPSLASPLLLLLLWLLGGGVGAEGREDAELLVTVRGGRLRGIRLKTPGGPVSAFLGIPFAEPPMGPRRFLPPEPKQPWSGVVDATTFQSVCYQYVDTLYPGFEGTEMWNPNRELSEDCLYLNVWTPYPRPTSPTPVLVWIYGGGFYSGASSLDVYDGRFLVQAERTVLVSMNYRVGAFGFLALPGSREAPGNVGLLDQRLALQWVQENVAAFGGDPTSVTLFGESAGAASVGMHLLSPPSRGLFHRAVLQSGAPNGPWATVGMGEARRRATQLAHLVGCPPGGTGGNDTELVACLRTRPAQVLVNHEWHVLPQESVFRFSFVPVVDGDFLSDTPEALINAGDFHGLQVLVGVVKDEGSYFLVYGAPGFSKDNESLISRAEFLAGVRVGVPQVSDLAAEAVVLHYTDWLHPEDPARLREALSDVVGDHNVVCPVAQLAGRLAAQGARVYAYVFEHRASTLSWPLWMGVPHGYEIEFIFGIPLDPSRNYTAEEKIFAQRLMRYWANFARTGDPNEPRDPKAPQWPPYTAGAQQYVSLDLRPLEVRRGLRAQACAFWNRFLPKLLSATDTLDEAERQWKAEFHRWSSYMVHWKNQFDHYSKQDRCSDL
Series [2] is described as follows: DRUGMATRIX: Tumor Necrosis Factor (TNF), Non-Selective radioligand binding (ligand: [125I] TNF-alpha). The format is cell membranes, Membrane. The note with it: u-937; Not Active = under 50% inhibition at 10 µM.
The target in series [3] is T1, Muscarinic acetylcholine receptor M5 (Homo sapiens, UniProt P08912). Note: in other assays of this panel Not Active means under 50% inhibition at 10 µM.
T1 sequence (P08912 whole entry): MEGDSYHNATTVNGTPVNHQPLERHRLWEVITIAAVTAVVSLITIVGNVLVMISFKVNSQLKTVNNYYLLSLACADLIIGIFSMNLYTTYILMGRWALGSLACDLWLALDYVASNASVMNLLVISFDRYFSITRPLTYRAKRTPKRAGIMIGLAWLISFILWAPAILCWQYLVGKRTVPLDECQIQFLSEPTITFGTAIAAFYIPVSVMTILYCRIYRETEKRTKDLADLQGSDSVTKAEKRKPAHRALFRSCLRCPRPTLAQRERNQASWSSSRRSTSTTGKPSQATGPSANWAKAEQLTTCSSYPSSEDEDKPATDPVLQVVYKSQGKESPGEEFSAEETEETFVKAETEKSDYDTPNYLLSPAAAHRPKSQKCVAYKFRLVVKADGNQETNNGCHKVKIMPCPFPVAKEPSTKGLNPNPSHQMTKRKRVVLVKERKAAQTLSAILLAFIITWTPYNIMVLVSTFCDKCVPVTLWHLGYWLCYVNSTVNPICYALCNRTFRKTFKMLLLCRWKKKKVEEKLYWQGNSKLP
The format is cell membranes, CHO-K1, Membrane. The note with it: cho-k1.

Series [4] is described as follows: DRUGMATRIX: Calcium Channel Type L, Benzothiazepine radioligand binding (ligand: [3H] Diltiazem). Conditions: Not Active = under 50% inhibition at 10 µM. The format is cell membranes, Rattus norvegicus, Wistar, Brain, Membrane.

Cytochrome P450 2E1, sequence (P05181 whole entry): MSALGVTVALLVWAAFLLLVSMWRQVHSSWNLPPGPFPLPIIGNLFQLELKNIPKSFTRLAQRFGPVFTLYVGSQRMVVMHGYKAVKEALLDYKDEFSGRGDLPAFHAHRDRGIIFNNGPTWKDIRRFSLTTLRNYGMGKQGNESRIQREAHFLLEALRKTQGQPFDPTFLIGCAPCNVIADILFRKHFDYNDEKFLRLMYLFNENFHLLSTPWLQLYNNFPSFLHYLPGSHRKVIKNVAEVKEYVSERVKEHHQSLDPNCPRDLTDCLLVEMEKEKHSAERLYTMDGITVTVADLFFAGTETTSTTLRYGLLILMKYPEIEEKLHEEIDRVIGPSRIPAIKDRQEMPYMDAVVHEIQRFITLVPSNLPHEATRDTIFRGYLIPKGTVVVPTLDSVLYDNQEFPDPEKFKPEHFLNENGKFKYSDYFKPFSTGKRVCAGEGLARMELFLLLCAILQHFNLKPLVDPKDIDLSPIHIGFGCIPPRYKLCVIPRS

Consider `CCCN(CCC)C(=O)C(CCC(=O)O)NC(=O)c1ccccc1` (stereo unspecified) [PROGLUMIDE], for which the IC50 result (in series [1]; against Cytochrome P450 2E1; against Acetylcholinesterase; in series [2]; in series [3]; in series [4]) was “Not Active” in each case. Moreover, the Ki result (at Cytochrome P450 2E1; in series [2]; in series [4]) was “Not Active” in each case.

Turning to `NC(=O)c1cnccn1` [PYRAZINAMIDE], the IC50 entry (in series [1]; at Cytochrome P450 2E1; against Acetylcholinesterase; in series [2]; in series [3]; in series [4]) was “Not Active” each time. In addition, the Ki entry (on Cytochrome P450 2E1; in series [2]; in series [4]) was “Not Active” in each case.

`Cc1cc2cc3c(C)cc(=O)oc3c(C)c2o1` [TRIOXSALEN]: the IC50 entry (in series [1]; against Cytochrome P450 2E1; at Acetylcholinesterase; in series [2]; in series [3]; in series [4]) was “Not Active” throughout. For the same compound, the Ki entry (at Cytochrome P450 2E1; in series [2]; in series [4]) was “Not Active” each time.

For `CCCC(CCC)C(=O)O` [VALPROIC ACID], the IC50 result (in series [1]; at Cytochrome P450 2E1; against Acetylcholinesterase; in series [2]; in series [3]; in series [4]) was “Not Active” each time. The Ki result (on Cytochrome P450 2E1; in series [2]; in series [4]) was “Not Active” in each case.

For `CCC1=C[C@@H]2CN(C1)Cc1c([nH]c3ccccc13)[C@@](C(=O)OC)(c1cc3c(cc1OC)N(C)[C@H]1[C@@](O)(C(=O)OC)[C@H](OC(C)=O)[C@]4(CC)C=CCN5CC[C@]31[C@@H]54)C2` [VINORELBINE], the IC50 result (in series [1]; on Cytochrome P450 2E1; at Acetylcholinesterase; in series [2]; in series [3]; in series [4]) was “Not Active” throughout. Further, the Ki result (on Cytochrome P450 2E1; in series [2]; in series [4]) was “Not Active” throughout.

Take CADMIUM DICHLORIDE: the IC50 in series [1] (read-out: IC50) is 486 nM; against Cytochrome P450 2E1, “Not Active”; against Acetylcholinesterase, “Not Active”; in series [2], “Not Active”; in series [3], “Not Active”; in series [4] it was “Not Active”. Besides, the Ki entry (at Cytochrome P450 2E1; at Acetylcholinesterase; in series [2]; in series [3]; in series [4]) was “Not Active” in each case.
